Assay results published in BindingDB's records for doi:10.1021/jm00020a029 (Merck Research Laboratories, 1995).
pEC50: −log10 of the molar value. Where a SMILES comes first, the peptide text is derived from it. [ ]: non-standard residue; d: D form. Phe(F5) = N[C@@H](Cc1c(F)c(F)c(F)c(F)c1F)C(=O)O; Phe(4-CH2NH2) = NCc1ccc(C[C@H](N)C(=O)O)cc1; Phe(4-F) = N[C@@H](Cc1ccc(F)cc1)C(=O)O; hArg = N=C(N)NCCCC[C@H](N)C(=O)O; Cha = N[C@@H](CC1CCCCC1)C(=O)O; NMeL = CN[C@@H](CC(C)C)C(=O)O; Phg = N[C@H](C(=O)O)c1ccccc1; NMeA = CN[C@@H](C)C(=O)O; Aib = CC(C)(N)C(=O)O

Assay: Evaluated for the activation of human thrombin receptor measured by platelet aggregation

## CC(C)C[C@H](NC(=O)[C@H](CC(C)C)NC(=O)[C@H](Cc1ccccc1)NC(=O)[C@@H](N)CO)C(N)=O [(S)-2-{(S)-2-[(S)-2-((S)-2-Amino-3-hydroxy-propionylamino)-3-phenyl-propionylamino]-4-methyl-pentanoylamino}-4-methyl-pentanoic acid amide] (H-SFLL-NH2)
  pEC50: 3.73

## CC(C)C[C@H](NC(=O)[C@H](CC(C)C)NC(=O)[C@H](Cc1ccc(CN)cc1)NC(=O)[C@H](C)N)C(=O)N[C@@H](CCCNC(=N)N)C(N)=O [(S)-2-[(S)-3-(4-Aminomethyl-phenyl)-2-((S)-2-amino-propionylamino)-propionylamino]-4-methyl-pentanoic acid [(S)-1-((S)-1-carbamoyl-4-guanidino-butylcarbamoyl)-3-methyl-butyl]-amide] (H-A[Phe(4-CH2NH2)]LLR-NH2)
  pEC50: 3.10

## CC(C)C[C@H](NC(=O)[C@H](CC(C)C)NC(=O)[C@@H](Cc1ccccc1)NC(=O)[C@@H](N)CO)C(=O)N[C@@H](CCCNC(=N)N)C(N)=O [(S)-2-[(R)-2-((S)-2-Amino-3-hydroxy-propionylamino)-3-phenyl-propionylamino]-4-methyl-pentanoic acid [(S)-1-((S)-1-carbamoyl-4-guanidino-butylcarbamoyl)-3-methyl-butyl]-amide]
  pEC50: < 3.10

## CC(C)C[C@H](NC(=O)[C@H](Cc1ccccc1)NC(=O)[C@H](C)N)C(=O)N(C)[C@@H](CC(C)C)C(=O)N[C@@H](CCCNC(=N)N)C(N)=O [(S)-2-[(S)-2-((S)-2-Amino-propionylamino)-3-phenyl-propionylamino]-4-methyl-pentanoic acid [(S)-1-((S)-1-carbamoyl-4-guanidino-butylcarbamoyl)-3-methyl-butyl]-methyl-amide] (H-AFL[NMeL]R-NH2)
  pEC50: 3.59

## CC(C)C[C@H](NC(=O)[C@H](CC(C)C)NC(=O)[C@H](Cc1ccccc1)NC(=O)[C@@H](N)CCCNC(=N)N)C(=O)N[C@@H](CCCNC(=N)N)C(N)=O [(S)-2-Amino-5-guanidino-pentanoic acid ((S)-1-{(S)-1-[(S)-1-((S)-1-carbamoyl-4-guanidino-butylcarbamoyl)-3-methyl-butylcarbamoyl]-3-methyl-butylcarbamoyl}-2-phenyl-ethyl)-amide] (H-RFLLR-NH2)
  pEC50: < 2.92

## CC(C)C[C@H](NC(=O)[C@H](CCCNC(=N)N)NC(=O)[C@H](Cc1ccc(F)cc1)NC(=O)[C@H](C)N)C(=O)N[C@@H](CCCNC(=N)N)C(N)=O [(S)-2-{(S)-2-[(S)-2-((S)-2-Amino-propionylamino)-3-(4-fluoro-phenyl)-propionylamino]-5-guanidino-pentanoylamino}-4-methyl-pentanoic acid ((S)-1-carbamoyl-4-guanidino-butyl)-amide] (H-A[Phe(4-F)]RLR-NH2)
  pEC50: 6.89

## NC(=O)[C@H](Cc1ccccc1)NC(=O)[C@@H](N)CO [(S)-2-Amino-N-((S)-1-carbamoyl-2-phenyl-ethyl)-3-hydroxy-propionamide]
  pEC50: < 3.10

## CC(C)C[C@H](NC(=O)[C@H](CC(C)C)NC(=O)[C@H](Cc1c(F)c(F)c(F)c(F)c1F)NC(=O)[C@H](C)N)C(=O)N[C@@H](CCCNC(=N)N)C(N)=O [(S)-2-[(S)-2-((S)-2-Amino-propionylamino)-3-pentafluorophenyl-propionylamino]-4-methyl-pentanoic acid [(S)-1-((S)-1-carbamoyl-4-guanidino-butylcarbamoyl)-3-methyl-butyl]-amide] (H-A[Phe(F5)]LLR-NH2)
  pEC50: 3.22

## CC(C)C[C@H](NC(=O)[C@H](CC(C)C)NC(=O)[C@@H](N)Cc1ccccc1)C(=O)N[C@@H](CCCNC(=N)N)C(N)=O [(S)-2-((S)-2-Amino-3-phenyl-propionylamino)-4-methyl-pentanoic acid [(S)-1-((S)-1-carbamoyl-4-guanidino-butylcarbamoyl)-3-methyl-butyl]-amide] (H-FLLR-NH2)
  pEC50: < 3.10

## CC(C)C[C@H](NC(=O)[C@H](Cc1ccc(F)cc1)NC(=O)[C@H](C)N)C(=O)N[C@@H](CC1CCCCC1)C(=O)N[C@@H](CCCNC(=N)N)C(N)=O [(S)-2-[(S)-2-((S)-2-Amino-propionylamino)-3-(4-fluoro-phenyl)-propionylamino]-4-methyl-pentanoic acid [(S)-1-((S)-1-carbamoyl-4-guanidino-butylcarbamoyl)-2-cyclohexyl-ethyl]-amide] (H-A[Phe(4-F)]L[Cha]R-NH2)
  pEC50: 6.85

## CC(C)C[C@H](NC(=O)[C@H](CC(C)C)NC(=O)[C@H](Cc1ccccc1)NC(=O)[C@H](N)CO)C(=O)N[C@@H](CCCNC(=N)N)C(N)=O [(S)-2-[(S)-2-((R)-2-Amino-3-hydroxy-propionylamino)-3-phenyl-propionylamino]-4-methyl-pentanoic acid [(S)-1-((S)-1-carbamoyl-4-guanidino-butylcarbamoyl)-3-methyl-butyl]-amide]
  pEC50: 3.10

## CC(C)C[C@H](NC(=O)[C@H](CC(C)C)NC(=O)[C@H](Cc1ccccc1)NC(=O)[C@@H](N)Cc1cnc[nH]1)C(=O)N[C@@H](CCCNC(=N)N)C(N)=O [(S)-2-{(S)-2-[(S)-2-Amino-3-(3H-imidazol-4-yl)-propionylamino]-3-phenyl-propionylamino}-4-methyl-pentanoic acid [(S)-1-((S)-1-carbamoyl-4-guanidino-butylcarbamoyl)-3-methyl-butyl]-amide] (H-HFLLR-NH2)
  pEC50: 4.51

## CC(C)C[C@H](NC(=O)[C@H](CC(C)C)NC(=O)[C@H](Cc1ccc(F)cc1)NC(=O)[C@H](C)N)C(=O)N[C@@H](CCCCNC(=N)N)C(N)=O [(S)-2-((S)-2-{(S)-2-[(S)-2-((S)-2-Amino-propionylamino)-3-(4-fluoro-phenyl)-propionylamino]-4-methyl-pentanoylamino}-4-methyl-pentanoylamino)-6-guanidino-hexanoic acid amide] (H-A[Phe(4-F)]LL[hArg]-NH2)
  pEC50: 6.92

## CC(C)C[C@H](NC(=O)[C@H](CC(C)C)NC(=O)[C@H](Cc1ccccc1)NC(=O)[C@@H](N)Cc1ccc(O)cc1)C(=O)N[C@@H](CCCNC(=N)N)C(N)=O [(S)-2-{(S)-2-[(S)-2-Amino-3-(4-hydroxy-phenyl)-propionylamino]-3-phenyl-propionylamino}-4-methyl-pentanoic acid [(S)-1-((S)-1-carbamoyl-4-guanidino-butylcarbamoyl)-3-methyl-butyl]-amide] (H-YFLLR-NH2)
  pEC50: 3.40

## CC(C)C[C@H](NC(=O)[C@H](CC(C)C)NC(=O)[C@H](Cc1ccccc1)NC(=O)[C@@H](N)CC(=O)O)C(=O)N[C@@H](CCCNC(=N)N)C(N)=O [(S)-3-Amino-N-((S)-1-{(S)-1-[(S)-1-((S)-1-carbamoyl-4-guanidino-butylcarbamoyl)-3-methyl-butylcarbamoyl]-3-methyl-butylcarbamoyl}-2-phenyl-ethyl)-succinamic acid] (H-DFLLR-NH2)
  pEC50: < 3.10

## COc1ccc(C[C@H](NC(=O)[C@H](C)N)C(=O)N[C@@H](CC(C)C)C(=O)N[C@@H](CC(C)C)C(=O)N[C@@H](CCCNC(=N)N)C(N)=O)cc1 [(S)-2-[(S)-2-((S)-2-Amino-propionylamino)-3-(4-methoxy-phenyl)-propionylamino]-4-methyl-pentanoic acid [(S)-1-((S)-1-carbamoyl-4-guanidino-butylcarbamoyl)-3-methyl-butyl]-amide] (H-AY(Me)LLR-NH2)
  pEC50: 4.67

## CC(C)C[C@H](NC(=O)[C@H](CC(C)C)NC(=O)[C@H](Cc1ccccc1)NC(=O)C(C)(C)N)C(=O)N[C@@H](CCCNC(=N)N)C(N)=O [(S)-2-[(S)-2-(2-Amino-2-methyl-propionylamino)-3-phenyl-propionylamino]-4-methyl-pentanoic acid [(S)-1-((S)-1-carbamoyl-4-guanidino-butylcarbamoyl)-3-methyl-butyl]-amide] (H-[Aib]FLLR-NH2)
  pEC50: 3.38

## CN[C@@H](C)C(=O)N[C@@H](Cc1ccccc1)C(=O)N[C@@H](CC(C)C)C(=O)N[C@@H](CC(C)C)C(=O)N[C@@H](CCCNC(=N)N)C(N)=O [(S)-4-Methyl-2-[(S)-2-((S)-2-methylamino-propionylamino)-3-phenyl-propionylamino]-pentanoic acid [(S)-1-((S)-1-carbamoyl-4-guanidino-butylcarbamoyl)-3-methyl-butyl]-amide] (H-[NMeA]FLLR-NH2)
  pEC50: 3.22

## CC(C)C[C@H](NC(=O)[C@H](CC(C)C)NC(=O)[C@@H](NC(=O)[C@H](C)N)c1ccccc1)C(=O)N[C@@H](CCCNC(=N)N)C(N)=O [(S)-2-[(S)-2-((S)-2-Amino-propionylamino)-2-phenyl-acetylamino]-4-methyl-pentanoic acid [(S)-1-((S)-1-carbamoyl-4-guanidino-butylcarbamoyl)-3-methyl-butyl]-amide] (H-A[Phg]LLR-NH2)
  pEC50: < 3.10

## CC(C)C[C@H](NC(=O)[C@H](CC(C)C)NC(=O)[C@H](Cc1ccccc1)NC(=O)[C@@H](N)CO)C(=O)N[C@@H](CCCN=C(N)N)C(=O)N[C@@H](CC(N)=O)C(=O)N1CCC[C@H]1C(N)=O [1-{(S)-2-[(S)-2-((S)-2-{(S)-2-[(S)-2-((S)-2-Amino-3-hydroxy-propionylamino)-3-phenyl-propionylamino]-4-methyl-pentanoylamino}-4-methyl-pentanoylamino)-5-guanidino-pentanoylamino]-3-carbamoyl-propionyl}-pyrrolidine-2-carboxylic acid amide] (H-SFLLRNP-NH2)
  pEC50: 6.30

## CC(C)C[C@H](NC(=O)[C@H](CC(C)C)NC(=O)[C@H](Cc1ccccc1)NC(=O)[C@H](C)N)C(=O)N[C@@H](CCCNC(=N)N)C(N)=O [(S)-2-[(S)-2-((S)-2-Amino-propionylamino)-3-phenyl-propionylamino]-4-methyl-pentanoic acid [(S)-1-((S)-1-carbamoyl-4-guanidino-butylcarbamoyl)-3-methyl-butyl]-amide] (H-AFLLR-NH2)
  pEC50: 6.10

## CC(C)C[C@H](NC(=O)[C@H](Cc1ccccc1)NC(=O)[C@H](C)N)C(=O)N[C@@H](CC1CCCCC1)C(=O)N[C@@H](CCCNC(=N)N)C(N)=O [(S)-2-[(S)-2-((S)-2-Amino-propionylamino)-3-phenyl-propionylamino]-4-methyl-pentanoic acid [(S)-1-((S)-1-carbamoyl-4-guanidino-butylcarbamoyl)-2-cyclohexyl-ethyl]-amide] (H-AFL[Cha]R-NH2)
  pEC50: 6.40
